According to patent US12564595B2, “Prophylactic and therapeutic pharmaceutical agent for HIV infectious diseases characterized by comprising combination of integrase inhibitor and anti-HIV agent” (Shionogi & Co., Ltd., priority 2019, dated 2026):
Like-named read-outs stand apart in the source and are kept apart here.

Experiments:
HIV [1] = experiment: microbe, parasite or virus in culture; format: cell-based; conditions: Human immunodeficiency virus 1, MT4, 96 h, read-out: EC50 (50% HIV inhibition concentration), MT-4 cells, HIV, cultured four days, MTT
Description: A serial dilution series of test samples was prepared in 96-well microplates (50 μL/well).
100 μL/well in each case were dispensed onto plates having test samples of 2.5×10^5/mL MT-4 cell suspension, and HIV virus solution was then dispensed thereto in the amount of 50 μL/well. Mixing was performed using a plate mixer and culturing was performed for four days in a CO2 incubator. MTT (3-(4,5-dimethylthiazol-2-yl)-2,5-diphenyltetrazolium bromide) liquid was dispensed into each well in the amount of 30 μL in each case. The reaction was conducted for 1 h in a CO2 incubator. 150 μL of supernatant were removed from each well, taking care not to aspirate any cells. 150 μL of cell solution were added, and thorough mixing was performed with a plate mixer until all the cells had been dissolved. The optical absorbance of the mixed plates was measured at two wavelengths: 560 nm/690 nm, with a microplate reader.

[2] = test system: HIV mutant strain 2 (E92Q/E138T/G140S/Q148H); experiment: Test Example 2: resistance evaluation test (HeLa-CD4 reporter), mutant strain 2; format: cell-based; conditions: FC=EC50 of mutant strain/EC50 of wild strain; HeLa-CD4 cells
Description: (§1) A serial dilution series of test samples in 96-well microplates was prepared (50 […]).
(§2) 2.5×10^4/mL of HeLa-CD4 cell suspension was dispensed into each of the microplates containing test sample, in the amount of 100 μL/well, and HIV virus liquid (wild strain and mutant strain) was then dispensed in an amount of 50 μL/well. Mixing was performed using a plate mixer and culturing was performed for three days in a CO2 incubator. After removing the cultured supernatant of each well by suction, 100 μL of the cell solution buffer in the reporter measurement kit was dispensed thereto, and freezing was conducted in a refrigerator (−80° C.). The plates frozen in the refrigerator were defrosted at room temperature, then mixed using a plate mixer and centrifuged for 5 min at 1,200 rpm. The supernatant of each well was divided to 96-well microplates (BLACK) in the amount of 20 μL in each case. The chemiluminescence reagent in the reporter assay kit was dispensed in the amount of 100 μL in each case, and, after reacting for about 1 h at room temperature, the amount of luminescence was measured using a MicroBeta TRILUX.
(§3) The degree of resistance (fold change (FC)) of each mutant strain was also calculated using the following formula. FC=EC50 of mutant strain/EC50 of wild strain (Results)
(§4) The results of the example compounds relating to formula (I) of (A) are shown below. The […] in respect of mutant strain 1 (E138K/G140S/Q148H/N155H) and the FC in respect of mutant strain 2 (E92Q/E138T/G140S/Q148H) are shown in the Table.

HIV [3] = experiment: Test Example 3: test for confirmation of combined use effect; format: cell-based; design: key to D value (dosewise additivity value): <-0.1 synergy, -0.1 to 0.1 additive, >0.1 antagonism
Text: The two compounds in respect of which the effect of combined use was desired to be examined were mixed in various ratios, and the anti-HIV activity (50% HIV inhibiting concentration) for each combination was found by the method of test example 1. […] A brief description of the method of calculating the D value is given below.
The D value that is found by evaluating the anti-HIV activity of respective combinations of M concentrations of compound X1 and N concentrations of compound X2 is calculated by the following mathematical expression 1.
The effect of combined use was evaluated in terms of the D value in accordance with the following criteria • −0.5 to −0.2: strong synergetic effect • −0.2 to −0.1: weak synergetic effect • […]: additive synergetic effect • 0.1 to 0.2: weak antagonism • 0.2 to 0.5: strong antagonism

[4] = test system: HIV mutant strain 1 (E138K/G140S/Q148H/N155H); experiment: Test Example 2: resistance evaluation test (HeLa-CD4 reporter), mutant strain 1; format: cell-based; conditions: FC=EC50 of mutant strain/EC50 of wild strain; HeLa-CD4 cells
Description: as §1, §2, §3, §4

[5] = Test Example 8: metabolic stability test; format: in vitro ADME, human; conditions: pooled human liver microsomes, 30 min at 37° C., NADPH, compound concentration 0.5 μmol/L
Description: The extent of metabolization of the compound according to the present invention in the liver was evaluated by reacting commercially available pooled human liver microsomes with the compound according to the present invention for a fixed time and calculating the remaining percentage by comparing the reaction sample with an unreacted sample.
The reaction (oxidative reaction) was conducted for 0 min or 30 min at 37° C. in the presence of 1 mmol/L of NADPH, in a 0.2 mL buffer solution containing 0.5 mg of human liver microsome protein/mL (50 mmol/L Tris-HCl pH 7.4, 150 mmol/L potassium chloride, 10 mmol/L magnesium chloride). After the reaction, 50 μL of reaction liquid were added to 100 μL of methanol/acetonitrile=1/1 (v/v) solution, mixed, and centrifuged for 15 minutes at 3000 rpm. The compound according to the present invention in the centrifuged supernatant was quantified using LC/MS/MS or solid phase extraction (SPE)/MS; the residual amount of the compound according to the present invention after the reaction was calculated, taking the amount of the compound at the 0 min reaction point as 100%.

[6] = compounds of formula (I′) of (B)
[7] = compounds of formula (I) of (A)
[8] = combination with compound (B) Compound C (CAI)
[9] = combination with compound (B) Darunavin (PI)
[10] = combination with compound (B) Darunavir (PI)
[11] = combination with compound (B) GS-6207 (CAI)
[12] = combination with compound (B) GSK2838232 (maturation inhibitor)
[13] = combination with compound (B) I′-189 (INLAI)
[14] = combination with compound (B) Lilpiperine (polymerase inhibitor)
[15] = combination with compound (B) Ramipzin (3TC) (polymerase inhibitor)
[16] = combination with compound (B) Rilpivirine (polymerase inhibitor)
[17] = combination with compound (B) VM-1500 (polymerase inhibitor)

COc1cnc(N2CCn3c(C)cc4c(-c5ccc(C)cc5)c([C@H](OC(C)(C)C)C(=O)O)c(C)c2c43)nc1 [I′-189]
EC50 (HIV [1]; [6]): 1.6 nM

CCN1C(=O)c2c(O)c(=O)c(C(=O)NCc3cccc(C(F)(F)F)c3F)cn2N2CCCC[C@@H]12 [II-074]
EC50 (HIV [1]; [7]): 18 nM

CCN1C(=O)c2c(O)c(=O)c(C(=O)NCc3c(F)cc(F)cc3F)cn2N2C[C@@H](C)CC[C@@H]12 [II-096]
FC in respect of mutant strain 2 (E92Q/E138T/G140S/Q148H) [2]: 8.9 | D value (dosewise additivity value) (HIV [3]; [8]): 0.065 | effect of combined use (HIV [3]; [8]): Additive (−0.1 to −0.1: additive synergetic effect) | D value (dosewise additivity value) (HIV [3]; [9]): −0.130 | effect of combined use (HIV [3]; [10]): Weak synergy (−0.2 to −0.1: weak synergetic effect) | D value (dosewise additivity value) (HIV [3]; [11]): −0.125 | effect of combined use (HIV [3]; [11]): Weak synergy (−0.2 to −0.1: weak synergetic effect) | D value (dosewise additivity value) (HIV [3]; [12]): 0.001 | effect of combined use (HIV [3]; [12]): Additive (−0.1 to −0.1: additive synergetic effect) | D value (dosewise additivity value) (HIV [3]; [13]): 0.070 | effect of combined use (HIV [3]; [13]): Additive (−0.1 to −0.1: additive synergetic effect) | effect of combined use (HIV [3]; [14]): Additive (−0.1 to −0.1: additive synergetic effect) | D value (dosewise additivity value) (HIV [3]; [15]): −0.177 | effect of combined use (HIV [3]; [15]): Weak synergy (−0.2 to −0.1: weak synergetic effect) | D value (dosewise additivity value) (HIV [3]; [16]): −0.035 | D value (dosewise additivity value) (HIV [3]; [17]): −0.115 | effect of combined use (HIV [3]; [17]): Weak synergy (−0.2 to −0.1: weak synergetic effect) | FC in respect of mutant strain 1 (E138K/G140S/Q148H/N155H) [4]: 6.4 | Remaining percentage [5]: 90.7%

Cc1ccc(-c2c([C@H](OC(C)(C)C)C(=O)O)c(C)c3c4c2cc(C)n4CCN3CCN(C)C)cc1 [I′-027]
EC50 (HIV [1]; [6]): 9.9 nM

COCC[C@H]1Cn2c(C)cc3c(-c4ccc(Cl)cc4)c([C@H](OC(C)(C)C)C(=O)O)c(C)c(c32)N1S(C)(=O)=O [I′-043]
EC50 (HIV [1]; [6]): 1.4 nM

Cc1ccc(-c2c([C@H](OC(C)(C)C)C(=O)O)c(C)c3c4c2cc(C)n4CCN3C)cc1 [I′-001]
EC50 (HIV [1]; [6]): 0.69 nM

Cc1ccc(-c2c([C@H](OC(C)(C)C)C(=O)O)c(C)c3c4c2cc(C)n4CCN3c2nc3c(s2)CCN(C)C3)cc1 [I′-292]
EC50 (HIV [1]; [6]): 2.5 nM

CN1C(=O)c2c(O)c(=O)c(C(=O)NCc3cccc(Cl)c3F)cn2N2CCCC[C@@H]12 [II-092]
FC in respect of mutant strain 2 (E92Q/E138T/G140S/Q148H) [2]: 7.7 | D value (dosewise additivity value) (HIV [3]; [8]): 0.056 | effect of combined use (HIV [3]; [8]): Additive (−0.1 to −0.1: additive synergetic effect) | D value (dosewise additivity value) (HIV [3]; [9]): −0.117 | effect of combined use (HIV [3]; [10]): Weak synergy (−0.2 to −0.1: weak synergetic effect) | D value (dosewise additivity value) (HIV [3]; [11]): −0.093 | effect of combined use (HIV [3]; [11]): Additive (−0.1 to −0.1: additive synergetic effect) | D value (dosewise additivity value) (HIV [3]; [12]): 0.000 | effect of combined use (HIV [3]; [12]): Additive (−0.1 to −0.1: additive synergetic effect) | effect of combined use (HIV [3]; [14]): Additive (−0.1 to −0.1: additive synergetic effect) | D value (dosewise additivity value) (HIV [3]; [15]): −0.118 | effect of combined use (HIV [3]; [15]): Weak synergy (−0.2 to −0.1: weak synergetic effect) | D value (dosewise additivity value) (HIV [3]; [16]): −0.022 | FC in respect of mutant strain 1 (E138K/G140S/Q148H/N155H) [4]: 6.8 | Remaining percentage [5]: 101%

C[C@H]1C[C@H]2N(C)C(=O)c3c(O)c(=O)c(C(=O)NCc4cccc(Cl)c4F)cn3N2C1 [II-036]
FC in respect of mutant strain 2 (E92Q/E138T/G140S/Q148H) [2]: 7.9 | D value (dosewise additivity value) (HIV [3]; [8]): 0.032 | effect of combined use (HIV [3]; [8]): Additive (−0.1 to −0.1: additive synergetic effect) | D value (dosewise additivity value) (HIV [3]; [9]): −0.115 | effect of combined use (HIV [3]; [10]): Weak synergy (−0.2 to −0.1: weak synergetic effect) | D value (dosewise additivity value) (HIV [3]; [11]): −0.117 | effect of combined use (HIV [3]; [11]): Weak synergy (−0.2 to −0.1: weak synergetic effect) | D value (dosewise additivity value) (HIV [3]; [12]): 0.021 | effect of combined use (HIV [3]; [12]): Additive (−0.1 to −0.1: additive synergetic effect) | effect of combined use (HIV [3]; [14]): Additive (−0.1 to −0.1: additive synergetic effect) | D value (dosewise additivity value) (HIV [3]; [15]): −0.184 | effect of combined use (HIV [3]; [15]): Weak synergy (−0.2 to −0.1: weak synergetic effect) | D value (dosewise additivity value) (HIV [3]; [16]): −0.044 | FC in respect of mutant strain 1 (E138K/G140S/Q148H/N155H) [4]: 15 | Remaining percentage [5]: 97.4%

CCN1C(=O)c2c(O)c(=O)c(C(=O)NCc3ccc(C#N)cc3)cn2N2CCCC[C@@H]12 [II-090]
EC50 (HIV [1]; [7]): 18 nM

CCN1C(=O)c2c(O)c(=O)c(C(=O)NCc3ccc(F)cc3F)cn2N2[C@@H](C)c3cc(F)ccc3[C@@H]12 [II-140]
EC50 (HIV [1]; [7]): 0.67 nM

Cc1ccc(-c2c([C@H](OC(C)(C)C)C(=O)O)c(C)c3c4c2cc(C)n4CCN3c2ncc(OCCN(C)C)cn2)cc1 [I′-220]
EC50 (HIV [1]; [6]): 5.9 nM

Cc1ccc(-c2c([C@H](OC(C)(C)C)C(=O)O)c(C)c3c4c2cc(C)n4CCN3c2ncc(CN(C)C)cn2)cc1 [I′-304]
EC50 (HIV [1]; [6]): 4.1 nM

CC(C)N1C(=O)c2c(O)c(=O)c(C(=O)NCc3c(F)cc(F)cc3F)cn2N2CCOC[C@@H]12 [II-022]
EC50 (HIV [1]; [7]): 0.39 nM

CN1C(=O)c2c(O)c(=O)c(C(=O)NCc3cccc(Cl)c3F)cn2N2C[C@@H]3CC[C@@H](O3)[C@@H]12 [II-058]
FC in respect of mutant strain 2 (E92Q/E138T/G140S/Q148H) [2]: 15 | FC in respect of mutant strain 1 (E138K/G140S/Q148H/N155H) [4]: 25 | Remaining percentage [5]: 97.7%

CCN1C(=O)c2c(O)c(=O)c(C(=O)NCc3ccc(F)cc3F)cn2N2C[C@@H]3CCC[C@@H](O3)[C@@H]12 [II-150]
FC in respect of mutant strain 2 (E92Q/E138T/G140S/Q148H) [2]: 16 | FC in respect of mutant strain 1 (E138K/G140S/Q148H/N155H) [4]: 26 | Remaining percentage [5]: 98.6%

CC(C)N1C(=O)c2c(O)c(=O)c(C(=O)NCc3ccccc3F)cn2N2C[C@@H]3CC[C@@H](O3)[C@@H]12 [II-009]
FC in respect of mutant strain 2 (E92Q/E138T/G140S/Q148H) [2]: 6.4 | FC in respect of mutant strain 1 (E138K/G140S/Q148H/N155H) [4]: 5.6 | Remaining percentage [5]: 87%
